Source: the CheMixHub viscosity set
± gives the uncertainty stated by the source.

Assay: xn = mol fraction of the nth substance listed

CC(C)(C)N + O
Settings | viscosity [mPa·s]
298 K, 101 kPa, x1 = 0.001 | 0.993 ± 0.013
298 K, 101 kPa, x1 = 0.01 | 1.068 ± 0.013
298 K, 101 kPa, x1 = 0.02 | 1.269 ± 0.014
298 K, 101 kPa, x1 = 0.03 | 1.527 ± 0.016
298 K, 101 kPa, x1 = 0.04 | 1.698 ± 0.017
298 K, 101 kPa, x1 = 0.05 | 1.89 ± 0.018
298 K, 101 kPa, x1 = 0.06 | 2.059 ± 0.019
298 K, 101 kPa, x1 = 0.08 | 2.363 ± 0.022
298 K, 101 kPa, x1 = 0.1 | 2.604 ± 0.023
298 K, 101 kPa, x1 = 0.15 | 2.992 ± 0.026
298 K, 101 kPa, x1 = 0.2 | 3.112 ± 0.027
298 K, 101 kPa, x1 = 0.25 | 3.057 ± 0.027
298 K, 101 kPa, x1 = 0.3 | 2.832 ± 0.025
298 K, 101 kPa, x1 = 0.4 | 2.211 ± 0.021
298 K, 101 kPa, x1 = 0.5 | 1.642 ± 0.017
298 K, 101 kPa, x1 = 0.6 | 1.195 ± 0.014
298 K, 101 kPa, x1 = 0.7 | 0.881 ± 0.012
298 K, 101 kPa, x1 = 0.8 | 0.677 ± 0.011
298 K, 101 kPa, x1 = 0.85 | 0.594 ± 0.011
298 K, 101 kPa, x1 = 0.9 | 0.534 ± 0.011
298 K, 101 kPa, x1 = 0.92 | 0.523 ± 0.011
298 K, 101 kPa, x1 = 0.95 | 0.48 ± 0.011
298 K, 101 kPa, x1 = 0.97 | 0.462 ± 0.011
298 K, 101 kPa, x1 = 0.98 | 0.456 ± 0.011
298 K, 101 kPa, x2 = 0.01 | 0.445 ± 0.011
298.15 K, 101.33 kPa, x1 = 0.1001 | 2.654 ± 0.016
298.15 K, 101.33 kPa, x1 = 0.2002 | 3.163 ± 0.019
298.15 K, 101.33 kPa, x1 = 0.2998 | 2.906 ± 0.019
298.15 K, 101.33 kPa, x1 = 0.3996 | 2.294 ± 0.017
298.15 K, 101.33 kPa, x1 = 0.5 | 1.69 ± 0.014
298.15 K, 101.33 kPa, x1 = 0.5999 | 1.229 ± 0.011
298.15 K, 101.33 kPa, x1 = 0.6984 | 0.9094 ± 0.0088
298.15 K, 101.33 kPa, x1 = 0.7998 | 0.6936 ± 0.0073
298.15 K, 101.33 kPa, x1 = 0.9 | 0.5459 ± 0.0063
303 K, 101 kPa, x1 = 0.001 | 0.81 ± 0.012
303 K, 101 kPa, x1 = 0.01 | 0.947 ± 0.013
303 K, 101 kPa, x1 = 0.02 | 1.116 ± 0.013
303 K, 101 kPa, x1 = 0.03 | 1.29 ± 0.014
303 K, 101 kPa, x1 = 0.04 | 1.455 ± 0.015
303 K, 101 kPa, x1 = 0.05 | 1.606 ± 0.016
303 K, 101 kPa, x1 = 0.06 | 1.745 ± 0.017
303 K, 101 kPa, x1 = 0.08 | 1.986 ± 0.019
303 K, 101 kPa, x1 = 0.1 | 2.189 ± 0.02
303 K, 101 kPa, x1 = 0.15 | 2.516 ± 0.022
303 K, 101 kPa, x1 = 0.2 | 2.622 ± 0.023
303 K, 101 kPa, x1 = 0.25 | 2.57 ± 0.023
303 K, 101 kPa, x1 = 0.3 | 2.392 ± 0.021
303 K, 101 kPa, x1 = 0.4 | 1.901 ± 0.018
303 K, 101 kPa, x1 = 0.5 | 1.419 ± 0.015
303 K, 101 kPa, x1 = 0.6 | 1.06 ± 0.013
303 K, 101 kPa, x1 = 0.7 | 0.787 ± 0.012
303 K, 101 kPa, x1 = 0.8 | 0.609 ± 0.011
303 K, 101 kPa, x1 = 0.85 | 0.543 ± 0.011
303 K, 101 kPa, x1 = 0.9 | 0.49 ± 0.011
303 K, 101 kPa, x1 = 0.92 | 0.47 ± 0.011
303 K, 101 kPa, x1 = 0.95 | 0.442 ± 0.011
303 K, 101 kPa, x1 = 0.97 | 0.426 ± 0.011
303 K, 101 kPa, x1 = 0.98 | 0.419 ± 0.011
303 K, 101 kPa, x2 = 0.01 | 0.417 ± 0.011
303.15 K, 101.33 kPa, x1 = 0.1001 | 2.222 ± 0.014
303.15 K, 101.33 kPa, x1 = 0.2002 | 2.645 ± 0.017
303.15 K, 101.33 kPa, x1 = 0.2998 | 2.422 ± 0.017
303.15 K, 101.33 kPa, x1 = 0.3996 | 1.935 ± 0.014
303.15 K, 101.33 kPa, x1 = 0.5 | 1.453 ± 0.012
303.15 K, 101.33 kPa, x1 = 0.5999 | 1.076 ± 0.0096
303.15 K, 101.33 kPa, x1 = 0.6984 | 0.8077 ± 0.0079
303.15 K, 101.33 kPa, x1 = 0.7998 | 0.6226 ± 0.0066
303.15 K, 101.33 kPa, x1 = 0.9 | 0.5017 ± 0.0058
308 K, 101 kPa, x1 = 0.001 | 0.73 ± 0.012
308 K, 101 kPa, x1 = 0.01 | 0.846 ± 0.012
308 K, 101 kPa, x1 = 0.02 | 0.99 ± 0.013
308 K, 101 kPa, x1 = 0.03 | 1.132 ± 0.014
308 K, 101 kPa, x1 = 0.04 | 1.263 ± 0.014
308 K, 101 kPa, x1 = 0.05 | 1.394 ± 0.015
308 K, 101 kPa, x1 = 0.06 | 1.571 ± 0.016
308 K, 101 kPa, x1 = 0.08 | 1.718 ± 0.017
308 K, 101 kPa, x1 = 0.1 | 1.871 ± 0.018
308 K, 101 kPa, x1 = 0.15 | 2.168 ± 0.021
308 K, 101 kPa, x1 = 0.2 | 2.211 ± 0.021
308 K, 101 kPa, x1 = 0.25 | 2.16 ± 0.02
308 K, 101 kPa, x1 = 0.3 | 2.061 ± 0.02
308 K, 101 kPa, x1 = 0.4 | 1.643 ± 0.017
308 K, 101 kPa, x1 = 0.5 | 1.24 ± 0.014
308 K, 101 kPa, x1 = 0.7 | 0.712 ± 0.011
308 K, 101 kPa, x1 = 0.8 | 0.566 ± 0.011
308 K, 101 kPa, x1 = 0.85 | 0.499 ± 0.011
308 K, 101 kPa, x1 = 0.9 | 0.451 ± 0.011
308 K, 101 kPa, x1 = 0.92 | 0.433 ± 0.011
308 K, 101 kPa, x1 = 0.95 | 0.41 ± 0.011
308 K, 101 kPa, x1 = 0.97 | 0.396 ± 0.011
308 K, 101 kPa, x1 = 0.98 | 0.389 ± 0.011
308 K, 101 kPa, x2 = 0.01 | 0.383 ± 0.011
308.15 K, 101.33 kPa, x1 = 0.1001 | 1.888 ± 0.012
308.15 K, 101.33 kPa, x1 = 0.2002 | 2.229 ± 0.014
308.15 K, 101.33 kPa, x1 = 0.2998 | 2.058 ± 0.014
308.15 K, 101.33 kPa, x1 = 0.3996 | 1.655 ± 0.012
308.15 K, 101.33 kPa, x1 = 0.5 | 1.258 ± 0.01
308.15 K, 101.33 kPa, x1 = 0.5999 | 0.9485 ± 0.0085
308.15 K, 101.33 kPa, x1 = 0.6984 | 0.726 ± 0.0071
308.15 K, 101.33 kPa, x1 = 0.7998 | 0.5736 ± 0.0062
